Results: ChEMBL document CHEMBL2074300, “Induction profile of rat organic anion transporting polypeptide 2 (oatp2) by prototypical drug-metabolizing enzyme inducers that activate gene expression through ligand-activated transcription factor pathways” (J Pharmacol Exp Ther, 2002)

Assays:
[1] = target: T1, Solute carrier organic anion transporter family member 1A4 (Rattus norvegicus, UniProt O35913); assay: TP_TRANSPORTER: Western in vivo SD rat, liver; assay type: functional, organism-based, Sprague-Dawley
T1 sequence (O35913 whole entry): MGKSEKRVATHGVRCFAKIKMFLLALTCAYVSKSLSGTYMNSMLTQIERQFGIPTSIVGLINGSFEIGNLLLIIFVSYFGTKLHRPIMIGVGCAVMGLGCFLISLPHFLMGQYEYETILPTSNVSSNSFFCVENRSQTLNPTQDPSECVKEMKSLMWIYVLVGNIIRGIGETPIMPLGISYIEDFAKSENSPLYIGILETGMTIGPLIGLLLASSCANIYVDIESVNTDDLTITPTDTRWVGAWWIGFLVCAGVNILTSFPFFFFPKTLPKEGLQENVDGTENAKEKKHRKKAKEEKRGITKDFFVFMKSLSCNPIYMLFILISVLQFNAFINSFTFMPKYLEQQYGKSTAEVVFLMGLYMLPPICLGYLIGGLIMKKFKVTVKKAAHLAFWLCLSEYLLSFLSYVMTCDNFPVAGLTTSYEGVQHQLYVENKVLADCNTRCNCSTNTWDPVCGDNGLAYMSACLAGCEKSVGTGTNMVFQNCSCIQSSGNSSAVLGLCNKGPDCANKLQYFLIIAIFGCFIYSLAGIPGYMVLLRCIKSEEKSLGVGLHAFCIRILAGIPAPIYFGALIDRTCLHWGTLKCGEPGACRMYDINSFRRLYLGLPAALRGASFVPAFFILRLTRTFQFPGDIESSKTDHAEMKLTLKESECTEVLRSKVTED

[2] = target: T1, Solute carrier organic anion transporter family member 1A4; assay: TP_TRANSPORTER: Northern blot in vivo SD rat, liver; assay type: functional, organism-based, Sprague-Dawley

| SMILES | Activity [1] | Activity [2] |
| --- | --- | --- |
| Clc1ccc(-c2cc(Cl)c(Cl)c(Cl)c2)cc1Cl [POLYCHLORINATED BIPHENYL 126] | inducer [Decrease] |  |
| O=c1cc(-c2ccccc2)oc2ccc3ccccc3c12 [BETA-NAPHTHOFLAVONE] | inducer [Decrease] |  |
| Clc1ccc(-c2cc(Cl)c(Cl)cc2Cl)c(Cl)c1 [POLYCHLORINATED BIPHENYL 99] | inducer [+] |  |
| CC(=O)[C@H]1[C@H](C#N)C[C@H]2[C@@H]3CC=C4C[C@@H](O)CC[C@]4(C)[C@H]3CC[C@@]21C [PREGNENOLONE CARBONITRILE] | inducer [+] | inducer [+] |
| CC(=O)S[C@@H]1CC2=CC(=O)CC[C@]2(C)[C@H]2CC[C@@]3(C)[C@@H](CC[C@@]34CCC(=O)O4)[C@H]12 [SPIRONOLACTONE] | inducer [+] |  |
| Clc1cc2c(cc1Cl)Oc1cc(Cl)c(Cl)cc1O2 [2,3,7,8-TETRACHLORODIBENZO-P-DIOXIN] | inducer [Decrease] |  |
| OCc1c[nH]c2ccccc12 [INDOLE-3-CARBINOL] | inducer [Decrease] | inducer [+] |
| C=CCSCC=C [DIALLYL SULFIDE] | inducer [+] | inducer [+] |
| CCC1(c2ccccc2)C(=O)NC(=O)NC1=O [PHENOBARBITAL] | inducer [+] |  |
| CCCC[C@@H](CC)COC(=O)c1ccccc1C(=O)OC[C@@H](CC)CCCC [BIS(2-ETHYLHEXYL)PHTHALATE] | inducer [+] |  |
| C[C@@H]1C[C@H]2[C@@H]3CCC4=CC(=O)C=C[C@]4(C)[C@@]3(F)[C@@H](O)C[C@]2(C)[C@@]1(O)C(=O)CO [DEXAMETHASONE] | inducer [+] |  |
